From PubChem BioAssay (NCI)
“And” between values parts separate entries of the source, which are not always exact repeats. Equal entries are not always repeated.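 Five compound concentrations were applied to cells in 96-well plates for 48 hours; endpoints were derived by simple linear interpolation of the resulting dose-response curve. Abbreviation: GI50, concentration required for 50% inhibition of growth. TGI is the concentration that stops growth completely.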

Key:
Assay in all cases: NCI tumour cell line growth inhibition, 48 h
OVCAR-4 ovarian = tested on: OVCAR-4 ovarian
MDA-MB-435 = tested on: MDA-MB-435
PC-3 prostate = tested on: PC-3 prostate
SK-MEL-2 melanoma = tested on: SK-MEL-2 melanoma
KM12 colon = tested on: KM12 colon
OVCAR-5 ovarian = tested on: OVCAR-5 ovarian
IGROV1 ovarian = tested on: IGROV1 ovarian
OVCAR-8 ovarian = tested on: OVCAR-8 ovarian
DU-145 prostate = tested on: DU-145 prostate
SN12C renal = tested on: SN12C renal

| Compound | GI50 (OVCAR-4 ovarian) | TGI (OVCAR-4 ovarian) | GI50 (MDA-MB-435) | TGI (MDA-MB-435) | GI50 (PC-3 prostate) | TGI (PC-3 prostate) | GI50 (SK-MEL-2 melanoma) | TGI (SK-MEL-2 melanoma) | GI50 (KM12 colon) | TGI (KM12 colon) | GI50 (OVCAR-5 ovarian) | TGI (OVCAR-5 ovarian) | GI50 (IGROV1 ovarian) | TGI (IGROV1 ovarian) | GI50 (OVCAR-8 ovarian) | TGI (OVCAR-8 ovarian) | GI50 (DU-145 prostate) | TGI (DU-145 prostate) | GI50 (SN12C renal) | TGI (SN12C renal) |
| --- | --- | --- | --- | --- | --- | --- | --- | --- | --- | --- | --- | --- | --- | --- | --- | --- | --- | --- | --- | --- |
| CC(=O)N[C@@H](Cc1ccc(OP(=O)(O)O)cc1)C(=O)N[C@H]1CCC(=O)N2CCC[C@@H](C(=O)NCc3ccc(Cl)cc3)N2C1=O | > 25 µM | > 25 µM | > 25 µM | > 25 µM | > 25 µM | > 25 µM | > 25 µM | > 25 µM | > 25 µM | > 25 µM | > 25 µM | > 25 µM | > 25 µM | > 25 µM | > 25 µM | > 25 µM | > 25 µM | > 25 µM | > 25 µM | > 25 µM |
| N#Cc1c(-c2ccccc2)nc(SCC2CO2)nc1N1CCOCC1 (stereo not given) | 52.7 µM | > 100 µM | 9.56 µM | > 100 µM | 6.19 µM | > 100 µM | 14.7 µM | 75.7 µM | 25.8 µM | > 100 µM | 5.05 µM | > 83.3 µM | 2.6 µM | 25.9 µM | 35.9 µM | > 100 µM | 14.2 µM | > 100 µM | 15.3 µM | > 100 µM |
| CCN1CCN(Cc2ccc(-c3cc4c(N[C@H](C)c5ccccc5)ncnc4[nH]3)cc2)CC1 | 4.71 µM and > 10 µM | 23 µM and > 10 µM | 1.95 µM and 2.74 µM | 4.63 µM and 8.4 µM | 2.24 µM and 5.07 µM | 18.7 µM and > 10 µM | 4.86 µM and > 10 µM | 17.4 µM and > 10 µM | 3.84 µM and 3.5 µM | 14.4 µM and > 10 µM | 0.708 µM and 1.61 µM | 23.9 µM and > 10 µM | 0.112 µM and 0.176 µM | 1.51 µM and 7.17 µM | 3.5 µM and 8.1 µM | 33 µM and > 10 µM | 1.78 µM and 2.38 µM | 19.9 µM and > 10 µM | 0.278 µM and 2.12 µM | 15.5 µM and > 10 µM |
| Clc1ccc(CSC(Cn2ccnc2)c2ccc(Cl)cc2Cl)cc1 (stereo not given) | 1.37 µM | 3.16 µM | 1.71 µM | 3.33 µM | 1.21 µM | 3.61 µM | 1.52 µM | 3 µM | 1.66 µM | 3.3 µM | 2.13 µM | 6.84 µM | 1.74 µM | 4.55 µM | 1.6 µM | 3.32 µM | 2.09 µM | 4.64 µM | 1.53 µM | 2.87 µM |
| C=CC[n+]1c(/C=C/C=C2\N(C)c3ccccc3C2(C)C)sc2ccc(OC)cc21 | 0.114 µM | 28.5 µM | 0.256 µM | 10.6 µM | 0.215 µM | 12.2 µM | 0.27 µM | 5.22 µM | 0.249 µM | 11.7 µM | 0.504 µM | 14.9 µM | 0.521 µM | 21.6 µM | 0.327 µM | 33.8 µM | 0.34 µM | 15.6 µM | 0.283 µM | 11.8 µM |
| CCOC(=O)c1ccc2[nH]c(-c3ccc(S(=O)(=O)F)cc3)cc(=O)c2c1 |  | > 100 µM |  | > 100 µM |  | > 100 µM |  | > 100 µM |  | > 100 µM |  | > 100 µM |  | > 100 µM |  | > 100 µM |  | > 100 µM |  | > 100 µM |
| Cc1ccc([N+](=O)[O-])cc1NC(=O)Nc1cccc(F)c1 | 3.96 µM | 51.9 µM | 3.8 µM | > 100 µM | 3.44 µM | > 100 µM | 8.82 µM | 89.2 µM | 3.67 µM | 48.7 µM | 9.82 µM | > 100 µM | 5.78 µM | 35.9 µM | 4.24 µM | > 100 µM | 4.54 µM | 28.4 µM | 5.18 µM | > 100 µM |
| COC(=O)[C@@]12C(=O)C=CC(=O)[C@@H]1C1C(=CC2COC(C)=O)O[C@@H]2OC3(CCCCC3)O[C@H]12 (stereo not given in full) |  | 19.7 µM |  | 29.8 µM |  | 25.3 µM |  | 37.3 µM |  | 26.5 µM |  | 30.7 µM |  | 31.6 µM |  | 20 µM |  | 32.2 µM |  | 29.1 µM |
| C[C@@H]1COCCN1c1cc(C2([S@](C)(=N)=O)CC2)nc(-c2ccnc3[nH]ccc23)n1 | 2.27 µM and 3.62 µM | 40.9 µM and > 10 µM | 3.74 µM and 4.29 µM | 35.7 µM and > 10 µM | 12.2 µM and > 10 µM | > 100 µM | 3.74 µM and 1.56 µM | 26.2 µM and > 10 µM | 4.21 µM and 3.95 µM | > 100 µM | 5.03 µM and 6.98 µM | 99.8 µM and > 10 µM | 4.24 µM and 2.23 µM | 68.6 µM and > 10 µM | 6.65 µM and > 10 µM | > 84.5 µM | 3.1 µM and 3.64 µM | > 100 µM | 5.04 µM and 9.13 µM | > 100 µM |
| Nc1c(C(=O)c2cccc(CCCN3CCOCC3)c2)cnn1-c1ccc(F)cc1 | > 25 µM | > 25 µM | > 25 µM | > 25 µM | > 25 µM | > 25 µM | > 25 µM | > 25 µM | > 25 µM | > 25 µM | > 25 µM | > 25 µM | > 25 µM | > 25 µM | > 25 µM | > 25 µM | > 25 µM | > 25 µM | > 25 µM | > 25 µM |
